Experiments:
RIP3 [1] = target: T1, RIP3 (Homo sapiens, UniProt Q9Y572); assay: Basal S227 auto-phosphorylation of RIP3 in HT-29 cells (immunoblot); format: cell-based; design: RIP3-expressing HT-29 cells; endogenous in cells; host or cells: HT-29; details: 10 μM, 9 h
Experimental: (§1) Cells were rinsed in cold phosphate-buffered saline (PBS) and lysed in M2 buffer containing 20 mM Tris at pH 7, 0.5% NP-40, 250 mM NaCl, 3 mM EDTA, 3 mM EGTA, 2 mM DTT, 0.5 mM PMSF, 20 mM β-glycerol phosphate, 1 mM sodium vanadate, and 1 μg/mL leupeptin. The cell extracts were subjected to western blot analysis. For immunoprecipitation, lysates were mixed and precipitated with antibody and protein A-agarose beads overnight or for 4 h at 4 °C. Bound proteins were removed by boiling in SDS and resolved by SDS-PAGE, and immunoblotting was visualized by enhanced chemiluminescence (ECL, Amersham).
RIP3 kinase activity is essential for TNF-induced necroptosis, and human S227 auto-phosphorylation sites of RIP3 are required for the interaction of RIP3 with its substrate MLKL[13],[14], which is indispensable for downstream necroptotic cell death signaling. To test the possible effects of the RIP3 inhibitors on necroptosis, HT-29 cells were treated with the kinase inhibitors, and RIP3 kinase activity was determined by examining its phosphorylation status.
(§2) Fig. 2 Novel inhibitors can block RIP3 S227 phosphorylation. a Western blotting showing various kinase inhibitor effects on RIP3 S227 auto-phosphorylation. HT-29 cells were treated with four tested kinase inhibitors (1308, 1336, 1338, and 1371, 10 μM) for 9 h. As a control, KK5101 (Trk alpha inhibitor) and HS829 (IKK beta inhibitor) were also treated at a concentration of 10 μM for 9 h. Prototypical necroptosis stimuli (TNF + zVAD + either cycloheximide or SMAC mimetic; hereafter referred to as TCZ or TSZ) were applied for 6 h. […] HT-29 cells were treated with 4 tested kinase inhibitors for 24 h, and cell viability was analyzed by MTT assay or phase-contrast microscopy. […] HT-29 cells were pretreated with necrostatin-1 (Nec-1, 40 μM), dabrafenib (DAB, 10 μM) or necrosulfonamide (NSA, 1 μM) for 2 h and then treated with TSZ for 6 h. […] HT-29 cells were pretreated with four tested kinase inhibitors for 2 h and then treated with TSZ for 6 h. Cell lysates were analyzed by immunoblotting. f HT-29 cells were pretreated with Nec-1 (40 μM), DAB (5 μM) or HS-1371 (5 μM) for 2 h and then treated with TSZ for 4 h. Cell lysates were immunoprecipitated with anti-RIP3 antibody. Immunoprecipitates and total lysates were analyzed by Western blotting

p-MLKL = assay: Phospho-MLKL immunofluorescence in HT-29 cells; format: cell-based, human; details: HT-29, immunofluorescence
Experimental: HT-29 cells were fixed in 4% paraformaldehyde for 10 min. To stain phospho-MLKL, cells were permeabilized with 0.25% Triton X-100 for 10 min. After incubation in a blocking buffer (10% fetal bovine serum in DPBS) for 30 min, the primary antibody to phospho-MLKL was incubated overnight at 4 °C, and FITC-conjugated secondary antibody (goat anti-rabbit IgG, 1:250, dilution, Invitrogen) was incubated for 1 h at room temperature. A mounting medium containing DAPI (VECTASHIELD, Cat No. 94010, Vector Laboratories) was used for counterstaining. Representative images were taken by confocal microscope.
HT-29 cells were pretreated with four tested inhibitors for 2 h and then treated with TSZ (6 h for immunoblotting, 24 h for cell death assay). Cell lysates were analyzed by immunoblotting, and cell viability was analyzed by MTT assay or phase-contrast microscopy. The results are presented as the means ± SEM. *P < 0.05, **P < 0.01, ***P < 0.001. b Protection of necroptosis by HS-1371 treatment is similar with dabrafenib, which abolished downstream events. HT-29 cells were pretreated with various necroptosis inhibitors and HS-1371 before TSZ treatment. Cell lysates were analyzed by immunoblotting, and cell viability was analyzed by MTT assay (left panel). Cells were stained with phospho-MLKL antibody and analyzed by confocal fluorescence microscopy (middle panel), and cell death was further analyzed by FACS analysis after PI staining (right panel). c HS-1371 protects cells from TNF-induced necroptosis in a dose-dependent manner. HT-29 cells were pretreated with indicated concentrations of HS-1371 and then treated with TSZ (6 h for immunoblotting, 24 h for cell death assay). Cell lysates were analyzed by immunoblotting, and cell viability was analyzed by MTT assay or phase-contrast microscopy. The results are presented as means ± SEM. *P < 0.05, **P < 0.01, ***P < 0.001 TEXT PRINTED IN THE PICTURE: (b) TSZ: 20.7 | (b) TSZ + Nec-1: 5.8 | (b) TSZ + DAB: 5.5 | (b) TSZ + 1371: 6.8 DOUBTS OF THE COPYIST ABOUT THIS PICTURE: Panel b, flow cytometry plots: the red gate numbers are printed without a measure or unit, so none is given / Panel b: the 'Untreated' control plot prints 7.7; left out because it is not a substance

RIP3 [2] = target: T1, RIP3; assay: TNF (TSZ)-induced RIP3 and MLKL phosphorylation in HT-29 cells (immunoblot); format: cell-based; design: RIP3-expressing HT-29 cells; endogenous in cells; host or cells: HT-29; details: HT-29; Nec-1 40 μM, DAB 10 μM, NSA 1 μM pretreated 2 h, TSZ 6 h
Experimental: as §1, §2
(§3) TNFα Smac mimetic and the caspase inhibitor zVAD (hereafter referred to as TSZ) is a classical combination that is used to induce RIP3-mediated necroptotic cell death[10],[32]. We first verified that three established pharmacological inhibitors of necroptosis, necrostatin-1 (Nec-1), necrosulfonamide (NSA), and dabrafenib (DAB) could block TNF-induced necroptosis (Fig. 2d). Of these inhibitors, Nec-1 inhibits RIP1 kinase activity[33],[34], DAB inhibits RIP3 kinase activity, and NSA inhibits MLKL functions downstream of RIP3 phosphorylation. […] Next, we tested whether these four inhibitors would inhibit TNF-induced necroptosis signaling by blocking RIP3 kinase activity. […] The effect of HS-1371 on RIP3 kinase activity was compared with another RIP3 inhibitor, GSK’872[16].

RIP3 [3] = target: T1, RIP3; assay: S227 auto-phosphorylation of overexpressed RIP3 in 293T cells (immunoblot); format: cell-based; details: 293T cells transfected with Flag-hRIP3
Source text: as §3, with “GSK’872[16]. […]” for “GSK’872[16].”
(a) Overexpression of RIP3 could induce S227 phosphorylation without stimuli. […] After cells were harvested, cell lysates were analyzed by […]
kinase inhibitor. HT-29 cells were treated with HS -1371 or GSK’872 indicated concentrations for 9 h, and cell lysates were analyzed by immunoblotting.
(c) Cytotoxicity of HS-1371 was compared with GSK’872. HT-29 cells were treated with 2 kinase inhibitors for 24 h and cell viability was analyzed by MTT assay.
(d) Inhibition of MLKL phosphorylation by HS-1371 was compared with other two RIP3 kinases inhibitors, DAB (5 μM) and GSK’872 (5 μM). […] Cell lysates were analyzed by […]

T1 sequence (Q9Y572 whole entry): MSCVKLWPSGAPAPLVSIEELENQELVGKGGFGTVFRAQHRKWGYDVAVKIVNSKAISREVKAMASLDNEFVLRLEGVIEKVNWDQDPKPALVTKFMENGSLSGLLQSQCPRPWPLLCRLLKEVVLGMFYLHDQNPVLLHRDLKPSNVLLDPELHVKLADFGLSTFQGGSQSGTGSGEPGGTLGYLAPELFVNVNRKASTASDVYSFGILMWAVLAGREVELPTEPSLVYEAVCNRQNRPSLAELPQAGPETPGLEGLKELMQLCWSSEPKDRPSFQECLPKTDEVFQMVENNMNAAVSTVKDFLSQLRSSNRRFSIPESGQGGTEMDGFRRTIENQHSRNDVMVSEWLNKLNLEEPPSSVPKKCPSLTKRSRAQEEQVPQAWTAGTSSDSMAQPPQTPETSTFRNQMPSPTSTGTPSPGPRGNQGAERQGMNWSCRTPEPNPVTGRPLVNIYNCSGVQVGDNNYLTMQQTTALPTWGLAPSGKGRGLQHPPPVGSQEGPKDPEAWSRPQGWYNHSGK

SMILES	effect on S227 auto-phosphorylation of RIP3 at the basal level (RIP3 [1])	p-MLKL detection / translocation after TSZ (p-MLKL)	block of TNF-induced necroptosis (RIP3 phosphorylation) (RIP3 [2])	S227 auto-phosphorylation of overexpressed RIP3 (RIP3 [3])
Fc1ccccc1Nc1ccnc2cc(-c3cnn(C4CCNCC4)c3)ccc12 [HS-1308]	inhibitory effect			
CN1C(=O)C(Cc2c[nH]c3ccccc23)NC1=S (stereo not shown) [necrostatin-1, reference compound]		no detection of p-MLKL	could block	
Fc1ccc(Oc2ccnc3cc(-c4cnn(C5CCNCC5)c4)ccc23)c(F)c1 [HS-1336]	inhibitory effect			
Fc1cccc(Oc2ccnc3cc(-c4cnn(C5CCNCC5)c4)ccc23)c1 [HS-1338]	inhibitory effect			
CC(C)(C)c1nc(-c2cccc(NS(=O)(=O)c3c(F)cccc3F)c2F)c(-c2ccnc(N)n2)s1 [dabrafenib]		no detection of p-MLKL	could block	inhibited
COc1nccnc1NS(=O)(=O)c1ccc(NC(=O)/C=C/c2ccc([N+](=O)[O-])s2)cc1 [necrosulfonamide, reference compound]		could not translocate into the plasma membrane	could block	
